Patent EP0985409A1, “Cosmetic use of fatty acids” (Shiseido International France SA, priority 1998, dated 2000)

Experiments:
[1] = target: T1, MMP-9 (Homo sapiens, UniProt P14780); assay: Ex vivo inhibition of enzyme activity on human skin sections: elastic fibre hydrolysis, enzyme pre-incubated with fatty acid; assay type: biochemical, humaine; design: L'enzyme sous sa forme activée a été incubée pendant 15 min; conditions: for inhibition at 1 µM / inhibition at 10 µM: hydrolysis of elastic fibres by MMP-9, human skin sections, read-out: % d'inhibition; for inhibition de l'activité de la MMP-9 (observation): MMP-9 pre-incubated with fatty acid, elastic fibres
Method: (§1) Les études ex vivo ont été réalisées sur des coupes de peau humaine issues de prépuces d'enfants âgés de 10 à 24 mois. Les coupes mises en oeuvre étaient des coupes de congélation de 8 µm d'épaisseur, sériées.
(§2) L'effet inhibiteur de l'activité enzymatique a été déterminé de la manière suivante : les enzymes testées étaient les suivantes : MMP-2, MMP-9 ou élastase leucocytaire. L'enzyme sous sa forme activée a été incubée pendant 15 min avec différentes concentrations d'acides gras selon l'invention, puis la solution contenant l'enzyme et l'inhibiteur a été déposée sur la coupe de peau humaine et incubée 4 à 18 heures à 37°C dans une atmosphère humide.
(§3) A la fin de l'incubation, les coupes ont été colorées avec des colorants spécifiques. Le colorant de l'élastine est la + catéchine et celui des collagènes est le rouge sirius.
(§4) Les résultats obtenus ont été déterminés selon le principe de quantification suivant: les fibres élastiques ont été colorées de façon spécifique par la + catéchine, et ont été quantifiées grâce à un système morphométrique précis et automatisé. Les lames ont été observées sous microscope équipé d'une caméra. Les images générées ont été converties en niveaux de gris correspondant aux composants à étudier. Les plus petites particules ne correspondant pas à ces éléments ont été éliminées de l'analyse. Un programme spécifique a permis de calculer ensuite la surface relative occupée par les fibres. Avec les fibres élastiques on a pu calculer l'aire et également le volume occupé par celles-ci, puisque leur longueur est supérieure à leur largeur. L'aire occupée par les trousseaux collagéniques a pu être quantifiée selon la même procédure.
Dans le cas de la MMP-9, on a étudié l'hydrolyse des fibres élastiques. En effet, à l'inverse de la MMP-2, la MMP-9 possède essentiellement une activité élastinolytique in situ.
Au niveau des fibres élastiques matures du derme moyen, on a observé une hydrolyse par la MMP-9. Les fibres élastiques étaient courtes et en paquets au lieu d'être longues et bien individualisées. L'hydrolyse était de 35 % environ. […] La quantification de l'hydrolyse des fibres élastiques par la MMP-9 en fonction des différents traitements a permis de déterminer le pourcentage d'inhibition de l'activité enzymatique. Les résultats obtenus figurent dans le Tableau III suivant : Tableau III
Target sequence in this assay (P14780 107-707 limits assumed): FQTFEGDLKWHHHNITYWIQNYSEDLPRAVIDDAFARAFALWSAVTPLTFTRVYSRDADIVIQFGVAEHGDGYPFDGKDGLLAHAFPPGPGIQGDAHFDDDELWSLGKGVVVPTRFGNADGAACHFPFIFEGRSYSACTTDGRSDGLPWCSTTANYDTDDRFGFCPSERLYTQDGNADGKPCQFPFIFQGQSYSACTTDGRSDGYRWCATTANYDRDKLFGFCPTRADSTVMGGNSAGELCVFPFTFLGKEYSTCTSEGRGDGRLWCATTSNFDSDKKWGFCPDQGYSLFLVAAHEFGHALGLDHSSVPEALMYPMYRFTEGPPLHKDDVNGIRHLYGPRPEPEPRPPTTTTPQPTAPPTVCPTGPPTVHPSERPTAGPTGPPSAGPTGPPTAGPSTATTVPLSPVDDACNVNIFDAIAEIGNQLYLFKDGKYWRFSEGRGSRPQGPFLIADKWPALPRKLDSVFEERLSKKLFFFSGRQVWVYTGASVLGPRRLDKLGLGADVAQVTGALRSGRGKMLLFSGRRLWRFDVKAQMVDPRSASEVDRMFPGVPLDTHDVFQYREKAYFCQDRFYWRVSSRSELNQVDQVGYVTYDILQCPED

[2] = target: T2, MMP-2 (Homo sapiens, UniProt P08253); assay: Inhibition of MMP enzymatic activity, hydrolysis of fluorescent synthetic substrate; assay type: biochemical; conditions: MMP-2, Gélatinase A
T2 sequence (P08253 110-660): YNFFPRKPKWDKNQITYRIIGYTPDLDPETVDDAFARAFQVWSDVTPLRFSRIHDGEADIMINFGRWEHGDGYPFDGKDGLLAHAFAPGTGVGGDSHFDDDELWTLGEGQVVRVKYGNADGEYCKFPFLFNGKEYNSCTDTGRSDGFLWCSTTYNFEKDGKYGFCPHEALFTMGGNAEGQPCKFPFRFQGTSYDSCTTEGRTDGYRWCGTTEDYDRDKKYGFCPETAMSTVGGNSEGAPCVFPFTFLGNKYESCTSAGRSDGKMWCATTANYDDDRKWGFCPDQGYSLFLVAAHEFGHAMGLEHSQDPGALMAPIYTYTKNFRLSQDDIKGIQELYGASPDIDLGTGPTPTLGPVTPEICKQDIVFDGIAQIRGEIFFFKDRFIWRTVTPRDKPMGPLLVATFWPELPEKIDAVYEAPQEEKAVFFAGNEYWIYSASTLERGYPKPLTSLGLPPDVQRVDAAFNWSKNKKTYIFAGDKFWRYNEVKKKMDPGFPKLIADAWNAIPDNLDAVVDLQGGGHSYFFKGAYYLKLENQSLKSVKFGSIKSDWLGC
Excerpt: (§5) On a démontré l'effet d'inhibition d'acides gras selon l'invention vis à vis de différentes métalloprotéinases matricielles. A cet effet, on a déterminé l'activité enzymatique de ces MMPs en utilisant un substrat synthétique fluorescent, le (7- méthoxycoumarine-4-yl) acétyl-Pro-Leu-Gly-Leu-(3-[2,4-dinitrophényl]-L-2,3-diaminopropionyl)-Ala-ArgNH2. Les MMPs peuvent cliver de façon spécifique la liaison amide qui lie les acides aminés Gly et Leu de ce substrat.
(§6) L'hydrolyse s'accompagne d'une augmentation sensible de la fluorescence qui peut être suivie et quantifiée à l'aide d'un spectrofluorimètre aux longueurs d'onde choisies. Suite à la rupture de la liaison Gly-Leu, le groupement dinitrophényl ne peut plus masquer la fluorescence du groupement 7-méthoxycoumarine.
(§7) On a réalisé cette hydrolyse du substrat par la MMP-2 et la MMP-9 en absence ou en présence de différentes concentrations d'acides gras selon l'invention. Les constantes d'inhibition (Ki) de l'activité enzymatique ont pu être ainsi déterminées. Les résultats obtenus figurent dans le Tableau I ci-dessous. Tableau I

[3] = target: T1, MMP-9; assay: as above; assay type: biochemical; conditions: MMP-9, Gélatinase B
Excerpt: as §5, §6, §7
Target sequence in this assay (P14780 94-707): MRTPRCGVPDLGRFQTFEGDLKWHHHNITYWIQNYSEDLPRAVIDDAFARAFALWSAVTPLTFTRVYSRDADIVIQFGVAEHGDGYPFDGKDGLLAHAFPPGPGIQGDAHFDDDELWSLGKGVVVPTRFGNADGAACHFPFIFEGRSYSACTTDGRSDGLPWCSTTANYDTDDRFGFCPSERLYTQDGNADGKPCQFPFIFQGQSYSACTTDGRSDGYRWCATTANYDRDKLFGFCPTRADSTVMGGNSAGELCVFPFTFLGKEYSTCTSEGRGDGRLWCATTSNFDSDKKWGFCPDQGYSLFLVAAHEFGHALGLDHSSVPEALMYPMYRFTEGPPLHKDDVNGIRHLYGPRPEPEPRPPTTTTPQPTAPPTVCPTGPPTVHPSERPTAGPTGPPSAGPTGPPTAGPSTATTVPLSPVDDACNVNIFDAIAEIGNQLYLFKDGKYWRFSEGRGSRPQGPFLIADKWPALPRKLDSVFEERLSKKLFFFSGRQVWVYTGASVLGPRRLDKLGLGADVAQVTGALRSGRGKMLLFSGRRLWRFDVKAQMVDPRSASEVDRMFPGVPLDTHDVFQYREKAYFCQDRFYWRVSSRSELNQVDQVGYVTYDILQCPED

[4] = target: T2, MMP-2; assay: Ex vivo inhibition of enzyme activity on human skin sections: collagen bundle hydrolysis, enzyme pre-incubated with fatty acid; assay type: biochemical, humaine; design: L'enzyme sous sa forme activée a été incubée pendant 15 min; conditions: for inhibition at 1 µM / inhibition at 10 µM: hydrolysis of collagen bundles by MMP-2, human skin sections, read-out: % d'inhibition; for hydrolyse des trousseaux collagéniques (observation): MMP-2 pre-incubated with fatty acid
Method: as §1, §2, §3, §4
On a étudié l'activité protéolytique de la MMP-2 sur les collagènes. Lorsque la MMP-2 est ajoutée sur les coupes de peau, on a pu observer une hydrolyse des trousseaux collagéniques, ceux-ci étant moins denses et moins nombreux. De plus l'épiderme était décollé. L'hydrolyse était de 34 % environ.

[5] = target: T3, élastase leucocytaire (Homo sapiens, UniProt P08246); assay: Ex vivo protection of elastic fibres: skin sections pre-incubated with fatty acid, then enzyme; assay type: biochemical, humaine; conditions: section pre-incubated with fatty acid; degradation of elastic fibres by élastase leucocytaire; concentration not given
T3 construct: L'enzyme sous sa forme activée a été incubée pendant 15 min
T3 sequence (P08246 30-267): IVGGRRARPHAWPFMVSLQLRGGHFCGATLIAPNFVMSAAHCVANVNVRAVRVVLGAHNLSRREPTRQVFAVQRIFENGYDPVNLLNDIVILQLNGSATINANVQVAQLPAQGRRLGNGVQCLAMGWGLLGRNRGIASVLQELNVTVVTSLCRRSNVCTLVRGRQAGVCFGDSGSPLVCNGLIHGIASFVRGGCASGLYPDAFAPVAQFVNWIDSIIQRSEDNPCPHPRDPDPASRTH
Excerpt: as §1
(§8) L'effet protecteur de la matrice extra-cellulaire a été déterminé de la façon suivante : les lames portant les coupes de peau ont été incubées sous agitation douce pendant 4 heures dans l'éthanol pur contenant l'acide gras selon l'invention à la concentration désirée. Puis les coupes ont été rincées et séchées. L'enzyme a alors été déposée sur la coupe, la lame a été mise à incuber en atmosphère humide à 37°C pendant 4 à 18 heures. A la fin de l'incubation, les lames ont été colorées avec les colorants spécifiques de l'élastine ou des collagènes mentionnés plus haut.
as §4, with “Un programme spécifique a permis de calculer ensuite la surface relative occupée par les fibres. Avec les fibres élastiques on a pu calculer l'aire et également le volume occupé par celles-ci, puisque leur longueur est supérieure à leur largeur.” left out, “procédure. […]” for “procédure.”

[6] = target: T1, MMP-9; assay: Ex vivo protection of extracellular matrix fibres: skin sections pre-incubated with fatty acid, then enzyme; assay type: biochemical, humaine; design: L'enzyme sous sa forme activée a été incubée pendant 15 min; conditions: then MMP-9; for % de protection: 10 µM
Excerpt: as §1, §8, §4
Target sequence in this assay (P14780 107-707 limits assumed): as the sequence (P14780 107-707 limits assumed) above
Les résultats obtenus figurent dans le Tableau V ci-après : Tableau V

[7] = target: T2, MMP-2; assay: as above; assay type: biochemical, humaine; design: L'enzyme sous sa forme activée a été incubée pendant 15 min; conditions: then MMP-2; for % de protection: 10 µM
Excerpt: as §1, §8, §4
Les trousseaux étaient plus denses, plus épais, leurs extrémités étaient moins effilochées, le réseau apparaissait plus dense. […] La quantification des fibres a permis d'obtenir les résultats figurant dans le Tableau IV suivant : Tableau IV

[8] = target: T4, MMP-1 (Homo sapiens, UniProt P03956); assay: Inhibition of MMP enzymatic activity, hydrolysis of fluorescent synthetic substrate; assay type: biochemical; conditions: MMP-1, Collagénase intersticielle
T4 sequence (P03956 100-469): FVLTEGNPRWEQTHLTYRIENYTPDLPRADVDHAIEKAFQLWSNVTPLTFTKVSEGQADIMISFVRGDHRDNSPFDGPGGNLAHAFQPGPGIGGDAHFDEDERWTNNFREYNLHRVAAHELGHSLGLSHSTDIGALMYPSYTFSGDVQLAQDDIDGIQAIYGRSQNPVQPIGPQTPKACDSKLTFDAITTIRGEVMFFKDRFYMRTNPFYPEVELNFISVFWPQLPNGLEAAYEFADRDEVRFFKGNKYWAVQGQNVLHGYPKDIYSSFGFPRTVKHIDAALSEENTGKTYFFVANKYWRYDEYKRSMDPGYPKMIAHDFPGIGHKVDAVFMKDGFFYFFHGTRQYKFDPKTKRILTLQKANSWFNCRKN

[9] = target: MMP-3 (Homo sapiens, UniProt P08254); assay: as above; assay type: biochemical; conditions: MMP-3, Stromélysine-1
Chain of MMP-3 (P08254 100-477): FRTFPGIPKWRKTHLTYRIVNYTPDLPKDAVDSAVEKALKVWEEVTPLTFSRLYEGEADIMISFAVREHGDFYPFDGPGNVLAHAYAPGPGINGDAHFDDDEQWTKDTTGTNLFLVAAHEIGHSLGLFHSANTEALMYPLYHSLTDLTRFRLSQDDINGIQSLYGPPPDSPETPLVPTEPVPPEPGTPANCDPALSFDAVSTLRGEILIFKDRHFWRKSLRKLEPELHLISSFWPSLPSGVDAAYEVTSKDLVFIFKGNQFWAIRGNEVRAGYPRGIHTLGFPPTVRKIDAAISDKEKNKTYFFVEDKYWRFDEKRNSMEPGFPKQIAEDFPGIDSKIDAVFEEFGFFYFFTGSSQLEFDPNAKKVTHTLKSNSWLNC

Row | inhibition at 1 µM [1] | inhibition at 10 µM [1] | inhibition de l'activité de la MMP-9 (observation) [1] | Ki [2] | Ki [3] | inhibition at 1 µM [4] | hydrolyse des trousseaux collagéniques (observation) ([4]; 10 µM) | inhibition at 10 µM ([4]; 10 µM) | protection [5] | hydrolyse des trousseaux collagéniques (observation) ([4]; 1 µM) | Structure (SMILES) | % de protection [6] | hydrolyse des fibres élastiques (observation) [6] | % de protection [7] | hydrolyse des trousseaux collagéniques (observation) [7] | Ki [8] | Ki [9]
1 | 10% | 24% | Cette inhibition est retrouvée | 8 µM | 14 µM | 18% | inhibait moins l'activité enzymatique | 40% | 58% | – | CC/C=C/C=C/C=C/C=C\CCCCCCCC(=O)O [acide cis-parinarique] | – | – | – | – | – | –
2 | 16% | 48% | inhibe l'activité de celle-ci | 24 µM | 1.9 µM | 12% | l'hydrolyse était nettement diminuée | 56% | – | l'hydrolyse a été diminuée | CC/C=C/C=C/C=C/C=C/CCCCCCCC(=O)O [acide trans-parinarique] | 75% | l'hydrolyse des fibres préélastiques du derme superficiel était diminuée | 61% | hydrolyse des trousseaux collagéniques nettement moins marquées | – | –

Row | Structure (SMILES) | inhibition at 1 µM [1] | inhibition at 10 µM [1] | inhibition de l'activité de la MMP-9 (observation) [1] | Ki [2] | Ki [3] | inhibition at 1 µM [4] | hydrolyse des trousseaux collagéniques (observation) ([4]; 10 µM) | inhibition at 10 µM ([4]; 10 µM) | protection [5] | hydrolyse des trousseaux collagéniques (observation) ([4]; 1 µM) | % de protection [6] | hydrolyse des fibres élastiques (observation) [6] | % de protection [7] | hydrolyse des trousseaux collagéniques (observation) [7] | Ki [8] | Ki [9]
3 | CCCCCCCC/C=C/CCCCCCCC(=O)O [acide élaïdique] | – | – | – | 4.25 µM | 5.8 µM | – | – | – | – | – | 98% | l'hydrolyse des fibres élastiques matures du derme moyen par la MMP-9 était nettement diminuée | 32% | La même constatation a pu être faite | 2.7 µM | 1.8 µM
